Test results published in patent US8546376B2, “Pharmaceutical compounds” (Almac Discovery Limited, priority 2009, dated 2013).
Where a name gives a salt, the structure may show the parent alone.

Assays:
Format in all cases: biochemical
AKT1 = target: T1, AKT1 (Homo sapiens, UniProt P31749); experiment: AKT Kinase Assay (IMAP fluorescent polarisation) vs AKT1; details: activated AKT1, FAM Crosstide substrate
T1 construct: purchased SignalChem
Protocol: (§1) Testing of the compounds was performed using an AKT Kinase Assay:
(§2) Activated AKT isoforms 1, 2 and 3 were assayed utilising a 5′ FAM Crosstide (Seq. GRPRTSSFAEG-OH). The extent of kinase phosphorylation was determined by fluorescent polarisation using IMAP progressive binding reagent, which introduces binding beads which allow the reagent to specifically bind to phosphate residues via covalent co-ordination complex bonds.
(§3) iMAP binding solution stops Crosstide/kinase interaction and specifically binds phosphorylated substrates. The degree of phosphorylation is determined by fluorescent polarisation (excitation 485 nm; emission 528 nm) or the reduction in speed of rotation of the excited substrate.
(§4) The following materials were used in the assay: • a) Activated AKT isoforms (SignalChem.) dissolved in Complete Reaction buffer at a pre-determined concentration selected so that the assay was carried out in the linear range. • b) AKT substrate peptide: FAM Crosstide (R7110) Molecular Devices, diluted in complete reaction buffer. • c) iMAP Progressive Screening Express Kit (R8127) Molecular Devices • d) Complete Reaction Buffer containing 0.1% BSA, 10 mM Tris-HCl, 10 mM MgCl2, 0.05% NaN3 and 0.01% phosphate free BSA, 1 mM DTT • e) Progressive Binding Solution containing 75% Buffer A, 25% Buffer B and low volume Binding Reagent which contains the binding entity for the assay • f) ATP diluted in complete reaction buffer • g) Black polystyrene 384 well assay plates (Nunc). • h) Biotek Synergy 4 Hybrid Plate reader.
(§5) 5 μl of test compound was dissolved in DMSO (Sigma Aldrich) and serially diluted in complete reaction buffer to give a fourteen point half log dose response and plated into 384 well black plates. The compound was incubated at room temperature with activated AKT isoform (5 μl) at the pre-determined concentration, for 45 minutes.
(§6) 2.5 μl of ATP solution mixed with 2.5 μl of AKT substrate peptide (FAM Crosstide (R7110) Molecular Devices) were dispensed into each well and the plate centrifuged at 1000 rpm for 20 seconds to ensure homogenous mixing of reagents. The reaction mix was incubated in the dark for one hour at room temperature.
(§7) The kinase reaction was stopped by the addition of Progressive Binding Solution and the mixture allowed to equilibrate for one hour in the dark, at room temperature.
(§8) The fluorescent polarisation generated in each well was determined using a […] Synergy 4 Hybrid plate reader. In brief, each reaction solution was excited at 485 nm with the emission measured at 528 nm in both the parallel and perpendicular pathway.
(§9) The polarisation value generated in each well was calculated by Gen5 software (Biotek) and the % inhibition of kinase activity compared to vehicle control was calculated via GraphPad Prism. IC50 values for each compound were calculated by non-linear regression analysis using Prism software.
(§10) All plates were internally controlled by two methods. Firstly, by calculating the signal:noise ratio; based on kinase polarisation without inhibitor and polarisation generated by complete reaction buffer in the absence of activated kinase. Secondly by determining IC50 values generated by known inhibitors of the AKT isoforms.

AKT2 = target: T2, AKT2 (Homo sapiens, UniProt P31751); experiment: AKT Kinase Assay (IMAP fluorescent polarisation) vs AKT2; details: activated AKT2, FAM Crosstide substrate
T2 construct: purchased SignalChem
Protocol: as §1, §2, §3, §4, §5, §6, §7, §8, §9, §10

AKT3 = target: T3, AKT3 (Homo sapiens, UniProt Q9Y243); experiment: AKT Kinase Assay (IMAP fluorescent polarisation) vs AKT3; details: activated AKT3, FAM Crosstide substrate
T3 construct: purchased SignalChem
Protocol: as §1, §2, §3, §4, §5, §6, §7, §8, §9, §10

T2 sequence (P31751 whole entry): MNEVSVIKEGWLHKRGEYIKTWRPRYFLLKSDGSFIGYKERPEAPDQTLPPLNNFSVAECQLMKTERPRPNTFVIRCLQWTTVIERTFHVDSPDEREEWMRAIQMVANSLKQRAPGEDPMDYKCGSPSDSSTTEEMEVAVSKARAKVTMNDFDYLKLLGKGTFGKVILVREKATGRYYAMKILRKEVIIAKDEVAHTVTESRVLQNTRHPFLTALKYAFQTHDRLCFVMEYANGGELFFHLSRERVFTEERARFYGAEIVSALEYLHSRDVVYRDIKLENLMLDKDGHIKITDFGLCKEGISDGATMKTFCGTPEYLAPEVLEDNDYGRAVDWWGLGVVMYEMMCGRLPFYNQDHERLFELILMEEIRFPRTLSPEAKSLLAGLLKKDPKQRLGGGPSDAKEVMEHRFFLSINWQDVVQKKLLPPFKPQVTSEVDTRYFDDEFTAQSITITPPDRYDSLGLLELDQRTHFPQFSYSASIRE
T1 sequence (P31749 whole entry): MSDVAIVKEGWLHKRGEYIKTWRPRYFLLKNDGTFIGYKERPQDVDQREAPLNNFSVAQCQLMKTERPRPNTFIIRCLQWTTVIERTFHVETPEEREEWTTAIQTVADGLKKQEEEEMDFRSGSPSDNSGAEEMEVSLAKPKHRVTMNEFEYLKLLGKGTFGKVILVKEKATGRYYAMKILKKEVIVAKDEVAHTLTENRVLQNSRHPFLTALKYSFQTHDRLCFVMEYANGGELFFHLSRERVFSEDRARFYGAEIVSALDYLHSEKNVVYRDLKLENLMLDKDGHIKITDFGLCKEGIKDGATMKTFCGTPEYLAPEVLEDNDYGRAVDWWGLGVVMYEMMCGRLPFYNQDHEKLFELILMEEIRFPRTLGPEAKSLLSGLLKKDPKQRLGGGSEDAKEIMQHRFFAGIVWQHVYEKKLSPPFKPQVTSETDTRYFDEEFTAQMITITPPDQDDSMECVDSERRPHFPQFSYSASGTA
T3 sequence (Q9Y243 whole entry): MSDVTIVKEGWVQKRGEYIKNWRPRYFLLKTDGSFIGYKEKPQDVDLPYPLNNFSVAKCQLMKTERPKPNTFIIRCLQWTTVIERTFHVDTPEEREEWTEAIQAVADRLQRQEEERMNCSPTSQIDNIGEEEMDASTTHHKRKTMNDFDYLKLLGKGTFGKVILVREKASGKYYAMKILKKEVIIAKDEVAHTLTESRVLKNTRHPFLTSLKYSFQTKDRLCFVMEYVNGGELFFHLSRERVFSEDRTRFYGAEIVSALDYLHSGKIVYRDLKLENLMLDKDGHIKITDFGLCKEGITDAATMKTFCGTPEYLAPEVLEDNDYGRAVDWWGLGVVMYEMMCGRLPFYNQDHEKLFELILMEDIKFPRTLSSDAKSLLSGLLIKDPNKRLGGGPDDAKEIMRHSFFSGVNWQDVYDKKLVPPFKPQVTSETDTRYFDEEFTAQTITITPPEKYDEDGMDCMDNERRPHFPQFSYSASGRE

Row | SMILES | IC50 (AKT1) [nM] | IC50 (AKT2) [nM] | IC50 (AKT3) [nM]
1 | Cc1c(-c2cccc3c(=O)c(-c4ccc(C5(N)CCC5)cc4)c(-c4ccccc4)oc23)cnn1C [Example 75, 3-[4-(1-Amino-cyclobutyl)-phenyl]-8-(1,5-dimethyl-1H-pyrazol-4-yl)-2-phenyl-chromen-4-one hydrochloride] | ≤ 1000 | ≤ 1000 | 1000 to 10000
2 | NC1(c2ccc(-c3c(-c4ccccc4)oc4c(N5CCOCC5)cccc4c3=O)cc2)CCC1 [Example 72, 3-[4-(1-Amino-cyclobutyl)-phenyl]-8-morpholin-4-yl-2-phenyl-chromen-4-one hydrochloride] | ≤ 1000 | 1000 to 10000 | > 10000
3 | Cn1ncc2ccc3c(=O)c(-c4ccc(C5(N)CCC5)cc4)c(-c4ccccc4)oc3c21 [Example 58, 7-[4-(1-Amino-cyclobutyl)-phenyl]-1-methyl-8-phenyl-1H-9-oxa-1,2-diaza-cyclopenta[a]naphthalen-6-one] | ≤ 1000 | ≤ 1000 | 1000 to 10000
4 | Cn1cnc2c3oc(-c4ccccc4)c(-c4ccc(C5(N)CCC5)cc4)c(=O)c3cc(Cl)c21 [Example 62, 7-[4-(1-Amino-cyclobutyl)-phenyl]-4-chloro-3-methyl-8-phenyl-3H-chromeno[7,8-d]imidazol-6-one hydrochloride] | ≤ 1000 | ≤ 1000 | ≤ 1000
5 | NC1(c2ccc(-c3c(-c4ccccc4)oc4cc(Br)ccc4c3=O)cc2)CCC1 [Example 13, 3-[4-(1-Amino-cyclobutyl)-phenyl]-2-phenyl-7-bromo-chromen-4-one] | 1000 to 10000 | 1000 to 10000 | > 10000
6 | Cn1cc(-c2cccc3c(=O)c(-c4ccc(C5(N)CCC5)cc4)c(-c4ccccc4)oc23)cn1 [Example 55, 3-[4-(1-Amino-cyclobutyl)-phenyl]-8-(1-methyl-1H-pyrazol-4-yl)-2-phenyl-chromen-4-one hydrochloride] | ≤ 1000 | ≤ 1000 | 1000 to 10000
7 | NC1(c2ccc(-c3c(-c4ccccc4)oc4nc(Cl)ccc4c3=O)cc2)CCC1 [Example 38, 3-[4-(1-Amino-cyclobutyl)-phenyl]-7-chloro-2-phenyl-pyrano[2,3-b]pyridin-4] | 1000 to 10000 | 1000 to 10000 | > 10000
8 | NC1(c2ccc(-c3c(-c4ccccc4)oc4c(ccc5cn[nH]c54)c3=O)cc2)CCC1 [Example 57, 7-[4-(1-Amino-cyclobutyl)-phenyl]-8-phenyl-1H-9-oxa-1,2-diaza-cyclopenta[a]naphthalen-6-one] | ≤ 1000 | ≤ 1000 | 1000 to 10000
9 | Cn1ncc2ccc3c(=O)c(-c4ccc(C5(N)CCC5)nc4)c(-c4ccccc4)oc3c21 [Example 71, 7-[6-(1-Amino-cyclobutyl)-pyridin-3-yl]-1-methyl-8-phenyl-1H-9-oxa-1,2-diaza-cyclopenta[a]naphthalen-6-one hydrochloride] | ≤ 1000 | > 10000 | > 10000
10 | COc1ccc2c(=O)c(-c3ccc(C4(N)CCC4)cc3)c(-c3ccccc3)oc2c1C#N [Example 12, 3-[4-(1-Amino-cyclobutyl)-phenyl]-7-methoxy-4-oxo-2-phenyl-4H-chromene-8-carbonitrile] | 1000 to 10000 | ≤ 1000 | 1000 to 10000
11 | NC1(c2ccc(-c3c(-c4ccccc4)oc4c(ccc5c(I)n[nH]c54)c3=O)cc2)CCC1 [Example 97, 7-[4-(1-Amino-cyclobutyl)-phenyl]-3-iodo-8-phenyl-1H-9-oxa-1,2-diaza-cyclopenta[a]naphthalen-6-one hydrochloride] | ≤ 1000 | 1000 to 10000 | > 10000
12 | COc1cccc2c(=O)c(-c3ccc(C4(N)CCC4)cc3)c(-c3ccccc3)oc12 [Example 16, 3-[4-(1-Amino-cyclobutyl)-phenyl]-8-methoxy-2-phenyl-chromen-4-one] | 1000 to 10000 | 1000 to 10000 | 1000 to 10000
13 | NC1(c2ccc(-c3c(-c4ccccc4)oc4cc(F)ccc4c3=O)cc2)CCC1 [Example 37, 3-[4-(1-Amino-cyclobutyl)-phenyl]-7-fluoro-2-phenyl-chromen-4-one hydrochloride] | ≤ 1000 | 1000 to 10000 | 1000 to 10000
14 | NC1(c2ccc(-c3c(-c4ccccc4)oc4cc(-c5ccn[nH]5)ccc4c3=O)cc2)CCC1 [Example 17] | > 10000 | 1000 to 10000 | > 10000
15 | COc1nccc2c(=O)c(-c3ccc(C4(N)CCC4)cc3)c(-c3ccccc3)oc12 [Example 39, 3-[4-(1-Amino-cyclobutyl)-phenyl]-8-methoxy-2-phenyl-pyrano[2,3-c]pyridin-4-one hydrochloride] | ≤ 1000 | ≤ 1000 | 1000 to 10000
16 | N#Cc1nccc2c(=O)c(-c3ccc(C4(N)CCC4)cc3)c(-c3ccccc3)oc12 [Example 127, 3-(4-(1-aminocyclobutyl)phenyl)-4-oxo-2-phenyl-4H-pyrano[2,3-c]pyridine-8-carbonitrile] | ≤ 1000 | 1000 to 10000 | > 10000
17 | CC(C)n1cc2ccc3c(=O)c(-c4ccc(C5(N)CCC5)cc4)c(-c4ccccc4)oc3c2n1 [Example 84, 7-[4-(1-Amino-cyclobutyl)-phenyl]-2-isopropyl-8-phenyl-2H-9-oxa-1,2-diaza-cyclopenta[a]naphthalen-6-one hydrochloride] | ≤ 1000 | ≤ 1000 | 1000 to 10000
18 | NC1(c2ccc(-c3c(-c4ccccc4)oc4c(ccc5nc[nH]c54)c3=O)cc2)CCC1 [Example 45, 7-[4-(1-Amino-cyclobutyl)-phenyl]-8-phenyl-1H-chromeno[7,8-d]imidazol-6-one.TFA] | 1000 to 10000 | ≤ 1000 | 1000 to 10000
19 | NC1(c2ccc(-c3c(-c4ccccc4)oc4c(ccc5cn(CCO)nc54)c3=O)cc2)CCC1 [Example 86, 7-[4-(1-Amino-cyclobutyl)-phenyl]-2-(2-hydroxy-ethyl)-8-phenyl-2H-9-oxa-1,2-diaza-cyclopenta[a]naphthalen-6-one hydrochloride] | ≤ 1000 | ≤ 1000 | 1000 to 10000
20 | NC1(c2ccc(-c3c(-c4ccccc4)oc4c(-c5cccnc5)nccc4c3=O)cc2)CCC1 [Example 123, 3-(4-(1-aminocyclobutyl)phenyl)-2-phenyl-8-(pyridin-3-yl)-4H-pyrano[2,3-c]pyridin-4-one hydrochloride] | ≤ 1000 | ≤ 1000 | 1000 to 10000
21 | Cc1c(-c2nccc3c(=O)c(-c4ccc(C5(N)CCC5)cc4)c(-c4ccccc4)oc23)cnn1C [Example 116, 3-(4-(1-aminocyclobutyl)phenyl)-8-(1,5-dimethyl-1H-pyrazol-4-yl)-2-phenyl-4H-pyrano[2,3-c]pyridin-4-one] | ≤ 1000 | 1000 to 10000 | 1000 to 10000
22 | Cc1nc2ccc3c(=O)c(-c4ccc(C5(N)CCC5)cc4)c(-c4ccccc4)oc3c2n1C [Example 90, 7-[4-(1-Amino-cyclobutyl)-phenyl]-1,2-dimethyl-8-phenyl-1H-chromeno[7,8-d]imidazol-6-one] | ≤ 1000 | ≤ 1000 | ≤ 1000
23 | NC1(c2ccc(-c3c(-c4ccccc4)oc4ccccc4c3=S)cc2)CCC1 [Example 65, 3-[4-(1-Amino-cyclobutyl)-phenyl]-2-phenyl-chromene-4-thione hydrochloride] | 1000 to 10000 | 1000 to 10000 | 1000 to 10000
